Results reported in patent publication EP4775567A1, “IONIZABLE CATIONIC LIPID COMPOUNDS AS WELL AS PREPARATION METHOD THEREFOR AND USE THEREOF” (Scindy Pharmaceutical (Suzhou) Co., Ltd, priority 2023, dated 2025).

Legend:
[1] = Particle size and polydispersity index (PDI) by dynamic light scattering; format: physicochemical; details: luciferase mRNA lipid nanoparticles prepared from the compound; 25°C
Protocol: (§1) Luciferase mRNA was diluted in a 10-100 mM sodium citrate buffer solution at pH 4.0, with the concentration of the mRNA solution being 135 µg/ml. A mixed lipid ethanol solution was prepared at a molar ratio of ionizable cationic lipid compound (each exemplary compound) : DSPC: cholesterol : 2-[(polyethylene glycol)-2000]-N,N-ditetradecylacetamide (ALC-0159) of 50:10:38.5:1.5. The mRNA solution and the mixed lipid solution were mixed at a volume ratio of 3:1 in a nanodrug preparation device, followed by ultrafiltration to obtain luciferase mRNA lipid nanoparticles.
(§2) • 1. Determination of particle size and polydispersity index (PDI): The average particle size and PDI of the nanoparticle sample solutions in the examples were determined by dynamic light scattering using Malvern ZetaSizer Nano ZS90. The measurement angle was 90°, the refractive index of the dispersant was 1.330, and the test temperature was 25°C. • 2. Zeta potential: The Zeta potential of the nanoparticle sample solutions in the examples was determined by electrophoretic light scattering (ELS) using Malvern ZetaSizer Nano ZS90. Refractive index of the dispersant: 1.330, Test temperature: 25°C. • 3. Encapsulation Rate: The Encapsulation Rate of luciferase mRNA in lipid nanoparticles was determined using a Quant-it Ribogreen RNA quantitation kit (ThermoFisher Scientific, UK) in accordance with the manufacturer's instructions.

[2] = Zeta potential by electrophoretic light scattering; format: physicochemical; details: luciferase mRNA lipid nanoparticles prepared from the compound; 25°C
Protocol: as §1, §2

[3] = Encapsulation Rate of luciferase mRNA in lipid nanoparticles (Quant-it Ribogreen RNA kit); format: physicochemical; details: luciferase mRNA in lipid nanoparticles prepared from the compound
Protocol: as §1, §2

HEK 293T cells = assay: In vitro transfection efficiency of luciferase mRNA lipid nanoparticles (luciferase activity); format: cell-based; details: 100 ng dose, 96-well plate, 24 h incubation; luciferase mRNA lipid nanoparticles
Protocol: as §1
HEK-293T cells were used to evaluate the in vitro transfection efficiency of lipid nanoparticle compositions prepared from each exemplary compound. HEK293T cells were routinely cultured in DMEM + 10% FBS medium to ensure the cells were in the logarithmic growth phase. One day before transfection, the cells were seeded into a 96-well culture plate at an appropriate cell density and grown overnight. At the time of transfection, the cell confluency needed to reach 70-90%. The lipid nanoparticle compositions prepared from each exemplary compound were diluted into 4 different dose concentrations with DMEM and added to the 96-well cell culture plate, resulting in final concentrations of 400 ng, 200 ng, 100 ng and 50 ng per well, respectively. luciferase plasmid transfected using Lipofectamine 2000 was used as the positive control (PC). After incubation for 24 h in a 5% CO2 incubator at 37°C, the substrate was added to the wells, and the luciferase activity was determined using a microplate reader. […] The luciferase activity of the luciferase mRNA lipid nanoparticles prepared from Compound 1005 in HEK293T cells is shown in Fig. 1.

female Balb/c mice = assay: In vivo transfection efficiency and safety of luciferase mRNA lipid nanoparticles (whole-body live imaging); details: tail vein injection, single dose 0.3 mpk, 6 h after administration
Protocol: as §1
6-8 week-old female Balb/c mice were used to evaluate the in vivo transfection efficiency and safety of lipid nanoparticle compositions prepared from each exemplary compound. The lipid nanoparticles prepared from each exemplary compound were administered by tail vein injection at a single dose of 0.3 mpk. At specific time points after administration (e.g., 3 h, 6 h), live imaging of the animals was performed using a PerkinElmer small animal imaging system to determine the bioluminescent signal. The whole-body live imaging of mice at 3 h/6 h after intravenous administration of luciferase mRNA lipid nanoparticles prepared from Compound 1008 is shown in Fig. 2. […] Table 3 Summary of in vitro/in vivo Activity Evaluation of Lipid Nanoparticles Prepared from Compounds

Compound | Particle Size [1] [nm] | Polydispersity Index (PDI) [1] | Zeta Potential [2] [mV] | Encapsulation Rate [3] [%] | HEK 293T Cell Luciferase Activity (HEK 293T cells) | Mouse Whole-Body Average Fluorescence Signal (female Balb/c mice)
CCCCCCCCCCCCCCCC(CC)C(=O)OCC(COC(=O)C(CC)CCCCCCCCCCCCCCC)(COC(=O)C(CC)CCCCCCCCCCCCCCC)NCCC(=O)NCCN(CCO)CCO (racemic) [Compound 1014] | 85.4 | 0.111 | 3.06 | 70.3 | 2.86×10^6 RLU | 3.55×10^4 p/s/cm^2/sr
CCCCCCCCCC(CCCCCCCC)C(=O)OCC(COC(=O)C(CCCCCCCC)CCCCCCCCC)(COC(=O)C(CCCCCCCC)CCCCCCCCC)NCCN(C)CCCCO (racemic) [Compound 3425] | 82.37 | 0.021 | -21.2 | 89.4 | 6.86×10^6 RLU | 1.56×10^7 p/s/cm^2/sr
CCCCCCCCCCCCCCCC(CC)C(=O)OCC(COC(=O)C(CC)CCCCCCCCCCCCCCC)(COC(=O)C(CC)CCCCCCCCCCCCCCC)NC(=O)CN (stereo not drawn) [Compound 1003] | 62.59 | 0.127 | -3.64 | 95.4 |  | 
CCCCCCCCCCCCCCCC(CC)C(=O)OCC(COC(=O)C(CC)CCCCCCCCCCCCCCC)(COC(=O)C(CC)CCCCCCCCCCCCCCC)NCCC(=O)NCCN(CCCO)CCCO (stereo not drawn) [Compound 1015] | 102.3 | 0.136 | 4.27 | 80.3 | 6.27×10^7 RLU | 1.43×10^4 p/s/cm^2/sr
CCCCCCCCCCCCCCCC(CC)C(=O)OCC(COC(=O)C(CC)CCCCCCCCCCCCCCC)(COC(=O)C(CC)CCCCCCCCCCCCCCC)NCCC(=O)NCCN(C)CCO (stereo not drawn) [Compound 1025] | 77.74 | 0.072 | 2.84 | 64.5 |  | 4.20×10^5 p/s/cm^2/sr
CCCCCCCCCC(CCCCCCCC)C(=O)OCC(COC(=O)C(CCCCCCCC)CCCCCCCCC)(COC(=O)C(CCCCCCCC)CCCCCCCCC)NCCC(=O)NCCN1CCNCC1 (stereo not drawn) [Compound 1111] | 110.3 | 0.103 | -0.902 | 83.2 | 3.29×10^4 RLU | 3.10×10^5 p/s/cm^2/sr
CCCCCCCCCC(CCCCCCCC)C(=O)OCC(COC(=O)C(CCCCCCCC)CCCCCCCCC)(COC(=O)C(CCCCCCCC)CCCCCCCCC)NCCC(=O)NCCN(C)CCn1cnc2c(N)ncnc21 (stereo not drawn) [Compound 1139] | 74.13 | 0.064 | -7.8 | 91.1 | 4.23×10^5 RLU | 3.87×10^5 p/s/cm^2/sr
CCCCCCCCCCCCCCCC(CC)C(=O)OCC(COC(=O)C(CC)CCCCCCCCCCCCCCC)(COC(=O)C(CC)CCCCCCCCCCCCCCC)NCCC(=O)NCCN(C)CCNC(=N)N (stereo not drawn) [Compound 1140] | 63.21 | 0.127 | 4.39 | 92.4 | 2.13×10^4 RLU | 6.21×10^4 p/s/cm^2/sr
CCCCCCCCCC(CCCCCCCC)C(=O)OCC(COC(=O)C(CCCCCCCC)CCCCCCCCC)(COC(=O)C(CCCCCCCC)CCCCCCCCC)NC(=O)CNCCN(C)CCCCO (stereo not drawn) [Compound 3423] | 87.5 | 0.086 | -18.6 | 96.0 | 3.97×10^5 RLU | 5.53×10^5 p/s/cm^2/sr
CCCCCCCCCCCCCCCC(CC)C(=O)OCC(COC(=O)C(CC)CCCCCCCCCCCCCCC)(COC(=O)C(CC)CCCCCCCCCCCCCCC)NCCN(C)CCCCO (stereo not drawn) [Compound 3424] | 94.71 | 0.115 | -0.327 | 88.9 | 1.81×10^4 RLU | 9.34×10^4 p/s/cm^2/sr
CCCCCCCCCCCCCCCC(CC)C(=O)OCC(COC(=O)C(CC)CCCCCCCCCCCCCCC)(COC(=O)C(CC)CCCCCCCCCCCCCCC)NCCCCCCN(C)CCCCO (stereo not drawn) [Compound 3426] | 85.51 | 0.104 | 2.23 | 95.5 | 3.01×10^5 RLU | 5.67×10^6 p/s/cm^2/sr
CCCCCCCCCCCCCCCC(CC)C(=O)OCC(COC(=O)C(CC)CCCCCCCCCCCCCCC)(COC(=O)C(CC)CCCCCCCCCCCCCCC)NC(=O)CNCCN(C)CCCCO (stereo not drawn) [Compound 3427] | 70.81 | 0.126 | 3.8 | 96.1 | 5.18×10^5 RLU | 8.24×10^6 p/s/cm^2/sr
CCCCCCCCCC(CCCCCCCC)C(=O)OCC(COC(=O)C(CCCCCCCC)CCCCCCCCC)(COC(=O)C(CCCCCCCC)CCCCCCCCC)NCCCCN(C)CCCCO (stereo not drawn) [Compound 3428] | 83.84 | 0.046 | -17.8 | 96.6 | 3.23×10^5 RLU | 2.04×10^5 p/s/cm^2/sr
